Tests used:
[1] = Solid stability testing of the crystal form B (influencing factors: high temperature, high humidity, light; accelerated 40 °C/75% RH; long-term 25 °C/60% RH); format: physicochemical
Text: Influencing factor testing: unless otherwise specified, each sample was placed in an open weighing bottle, which was placed in the corresponding storage container to investigate the stability at the time points of 5 and 10 days. The photostability testing complied with the requirements of ICH Q1B: the illuminated sample was exposed to visible light and ultraviolet light; storage conditions: the sample was illuminated at 5000±500 lux (visible light) and 90 μw/cm^2 (UV) for 5 days and 10 days. The total illumination received by the sample after 10 days was not less than 1.2×10^6 Lux·h, and the near-ultraviolet energy was not less than 200 w·h/m^2. The illuminated sample was placed in a clean weighing bottle, and spread out into a single layer without being covered by anything. The weighing bottle was uncovered and placed in an illumination box for illumination. The control sample was packaged in the same way as the illuminated sample, but the weighing bottle was covered with aluminum film. Long-term and accelerated testing: each sample was placed in a double-layer LDPE bag, respectively, and each layer of the LDPE bag was sealed with a buckle. Then, the sample was placed in an aluminum foil bag, which was heat-sealed. The sample was placed for 1, 2 and 3 months in the accelerated testing, and placed for 3 months under the long-term condition. XRPD analysis was performed on all the stability samples to test the changes in the crystal forms.
25 mg of a sample was taken, weighed accurately, and placed in a 10 mL volumetric flask. 6 mL of acetonitrile was added and the sample was dissolved by ultrasound. The mixture was cooled to room temperature, and water was added to the scale marker. The mixture was shaken well, and the sample was dissolved to give a solution with a concentration of approximately 2.5 mg/mL. The liquid phase was used for sample injection analysis. The test results were compared with the initial test results on day 0.

[2] = Hygroscopicity study by dynamic vapor sorption (DVS); format: physicochemical; conditions: 25 °C/80% RH
Procedure: Instrument model: SMS DVS intrinsic plus dynamic vapor sorption instrument. Detailed DVS parameters are as follows: • Temperature: 25 °C; • Protective gas and flow rate: nitrogen, 200 mL/min; • dm/dt=0.002%/min; • RH (%) test gradient: 10% RH; • Minimum dm/dt balance time: 10 min; • Maximum balance time: 180 min; • Range of RH (%) test gradient: 0% to 95%.
The classification of hygroscopicity evaluation is as follows: • Absorbing enough water and forming a liquid: deliquescence; ΔW %≥15%: very hygroscopic; 15%>ΔW %≥2%: hygroscopic; 2%>ΔW %≥0.2%: slightly hygroscopic; ΔW %<0.2%: Not or almost not hygroscopic. ΔW % represents the weight increase of a test sample by moisture absorption at 25±1 °C and 80±2% RH.
The test was performed using SMS DVS intrinsic plus dynamic vapor sorption instrument.

[3] = Solid stability testing of the crystal form B (influencing factors: high temperature, high humidity, light; accelerated 40 °C/75% RH; long-term 25 °C/60% RH); format: physicochemical; remark: listed apart in the source
[4] = Pharmacokinetic evaluation in male CD-1 mice (IV 0.5 mg/kg, PO 2 mg/kg), plasma LC/MS/MS; format: in vivo
Procedure: Assay purpose: The pharmacokinetic properties of the compounds of the present disclosure were studied in mice.
Each assay compound was mixed with DMAC respectively, and vortexed for 2 minutes. The solution of the assay compound in DMAC was mixed and vortexed for 2 minutes to prepare a clear solution of 10 mg/mL. 0.0600 mL of 10 mg/mL solution was added to 0.300 mL of Solutol, and the mixture was vortexed for 2 minutes. Then 2.400 mL of normal saline was added, and the mixture was vortexed for 2 minutes to obtain a clear solution of 0.2 mg/mL, which was used for administration in PO group. 0.500 mL of the solution for administration in PO group was vortexed for 2 minutes, and 0.0500 mL of DMAC was added. The mixture was vortexed for 2 minutes, and then 0.0500 mL of solutol was added. The mixture was vortexed for 2 minutes, and finally 0.400 mL of normal saline was added. The mixture was vortexed for two minutes to give a clear solution of 0.1 mg/mL, which was filtered through a microporous membrane to give a solution for administration in injection (IV) group.
Four male CD-1 mice were divided into two groups. The animals in the first group were administered intravenously once at a dose of 0.5 mg/kg, wherein the vehicle was 10% DMAC/10% Solutol/80% normal saline, and the administration volume was 5 mL/kg. The animals in the second group were administered orally 2 mg/kg of the assay compound by oral gavage, wherein the oral vehicle was 10% DMAC/10% Solutol/80% normal saline, and the oral volume was 10 mL/kg. Whole blood was collected at 0.033 (IV injection only), 0.083, 0.25, 0.5, 1, 2, 4 and 12 hours post-dose. The whole blood was centrifuged at 3200 g at 2-8 °C for 10 min to obtain plasma. The concentration of the assay compound in plasma was determined by LC/MS/MS method, and the pharmacokinetic parameters were calculated by Phoenix WinNonlin software.
The parameters have the following meanings: IV: intravenous injection; PO: oral administration; C0: initial plasma concentration; Cmax: maximum drug concentration in the systemic circulation; Tmax: time required to reach Cmax; T1/2: half-life; Vdss: apparent volume of distribution; Cl: clearance rate; AUC0-last: area under the plasma drug concentration-time curve.

[5] = High humidity (25 °C, 92.5% relative humidity, uncovered), 10 days
[6] = High temperature (60 °C, uncovered), 10 days
[7] = Long term (25 °C, 60% relative humidity, uncovered), 3 months
[8] = Visible light + UV (ICH conditions), total illumination of visible light reaching 1200000 Lux·h, UV reaching 200 w·h/m^2
[9] = Accelerated (40 °C, 75% relative humidity, uncovered), 1 month
[10] = Accelerated (40 °C, 75% relative humidity, uncovered), 2 months
[11] = Accelerated (40 °C, 75% relative humidity, uncovered), 3 months
[12] = Light-shielding control group, placed with visible light + UV light, wrapped with tin foil

## O=C(O)c1scc2[nH]c(=O)n(-c3cc4c(cc3F)OCCCOc3ccc(F)c(F)c3CO4)c(=O)c12
[1]; 0 day (initial)
  Purity (HPLC): 99.4%
[1]; [5]
  Crystal form: form B
  Purity (HPLC): 99.4%
[1]; [6]
  Crystal form: form B
  Purity (HPLC): 99.4%
[1]; [7]
  Purity (HPLC): 99.4%
[1]; [8]
  Crystal form: form B
  Purity (HPLC): 99.4%
[1]; all stability conditions (high temperature, high humidity, illumination, long-term and accelerated)
  change of purity and crystalline form: did not change significantly
[2]
  hygroscopicity: slightly hygroscopic (2%>ΔW %≥0.2%)
[2]; DVS
  ΔW %: 0.535%
[3]; 0 day (initial)
  Crystal form: form B
[3]; [9]
  Crystal form: form B
  Purity (HPLC): 99.4%
[3]; [10]
  Crystal form: form B
  Purity (HPLC): 99.4%
[3]; [11]
  Crystal form: form B
  Purity (HPLC): 99.4%
[3]; [12]
  Crystal form: form B
  Purity (HPLC): 99.4%
[3]; [7]
  Crystal form: form B
[3]; conclusion in words, all stability conditions
  chemical stability: good chemical stability

## O=C(O)c1scc2[nH]c(=O)n(-c3cc4c(cc3F)OCCCOc3ccc(F)c(F)c3CO4)c(=O)c12 [Compound of formula (I)]
[4]; IV (0.5 mg/kg)
  AUC0-last: 48.307 µM·h
  Cl (clearance rate): 0.332 mL/min/kg
  T1/2: 5.66 h
  Vdss (apparent volume of distribution): 0.159 L/kg
[4]; IV (0.5 mg/kg), read-out: C0 (initial plasma concentration)
  C0: 13.5 µM
[4]; PO (2 mg/kg)
  AUC0-last: 142.824 µM·h
  Bioavailability: 95.3%
  Cmax: 25.8 µM
  T1/2: 5.03 h
  Tmax: 0.500 h

Source: patent US20260347370A1, “SALT TYPE AND CRYSTAL FORM OF THIENOPYRIMIDINONE DERIVATIVE” (CMS RESEARCH & DEVELOPMENT PTE. LTD., priority 2022, published 2026)
